Assay results published in PubChem BioAssay AID1963984 (Molecular Pharmacology Branch, DTP, NCI, 2024).

Tested on: 233499-124-R-J3-PDC spheroids with HUVEC/MSC, viability
Assay: Anticancer human tumor 233499-124-R-J3-PDC patient-derived colon adenocarcinoma cell line growth inhibition [PI3K]
Conditions: for IC50: curve of first compound; for viability, T/C: stronger effect = lower value; active means viability on the fitted dose curve at most 10% of control; inactive means the rest
Summary of the method: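 Viability of mixed-cell spheroids was determined after exposure to pairwise combinations, one partner being inavolisib, alpelisib, duvelisib or copanlisib. Highest tested concentration matched clinical Cmax where known and 10 microM where not, descending in half-log steps.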

[1] = second compound 0.00316 µM, first compound 0.000316 µM
[2] = second compound 0.00316 µM, first compound 0.001 µM
[3] = second compound 0.00316 µM, first compound 0.00316 µM
[4] = second compound 0.00316 µM, first compound 0.01 µM
[5] = second compound 0.00316 µM, first compound 0.0316 µM
[6] = second compound 0.00316 µM, first compound 0.1 µM
[7] = second compound 0.01 µM, first compound 0.000316 µM
[8] = second compound 0.01 µM, first compound 0.001 µM
[9] = second compound 0.01 µM, first compound 0.00316 µM
[10] = second compound 0.01 µM, first compound 0.01 µM
[11] = second compound 0.01 µM, first compound 0.0316 µM
[12] = second compound 0.01 µM, first compound 0.1 µM
[13] = second compound 0.0316 µM, first compound 0.000316 µM
[14] = second compound 0.0316 µM, first compound 0.001 µM
[15] = second compound 0.0316 µM, first compound 0.00316 µM
[16] = second compound 0.0316 µM, first compound 0.01 µM
[17] = second compound 0.0316 µM, first compound 0.0316 µM
[18] = second compound 0.0316 µM, first compound 0.1 µM
[19] = second compound 0.1 µM, first compound 0.000316 µM
[20] = second compound 0.1 µM, first compound 0.001 µM
[21] = second compound 0.1 µM, first compound 0.00316 µM
[22] = second compound 0.1 µM, first compound 0.01 µM
[23] = second compound 0.1 µM, first compound 0.0316 µM
[24] = second compound 0.1 µM, first compound 0.1 µM
[25] = second compound 0.316 µM, first compound 0.000316 µM
[26] = second compound 0.316 µM, first compound 0.001 µM
[27] = second compound 0.316 µM, first compound 0.00316 µM
[28] = second compound 0.316 µM, first compound 0.01 µM
[29] = second compound 0.316 µM, first compound 0.0316 µM
[30] = second compound 0.316 µM, first compound 0.1 µM
[31] = second compound 1 µM, first compound 0.000316 µM
[32] = second compound 1 µM, first compound 0.001 µM
[33] = second compound 1 µM, first compound 0.00316 µM
[34] = second compound 1 µM, first compound 0.01 µM
[35] = second compound 1 µM, first compound 0.0316 µM
[36] = second compound 1 µM, first compound 0.1 µM
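Further: spheroids exposed to agents for seven days before readout.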
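Wherever viability, T/C is given: percent viability relative to DMSO vehicle control taken as 100%.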

CC(=O)c1c(C)c2cnc(Nc3ccc(N4CCNCC4)cn3)nc2n(C2CCCC2)c1=O + COc1c(OCCCN2CCOCC2)ccc2c3n(c(=NC(=O)c4cnc(N)nc4)nc12)CCN3
< 0.316 nM: IC50 (second compound 0.316 µM) | IC50 (second compound 1 µM)
> 100 nM: IC50 (second compound 0.00316 µM) | IC50 (second compound 0.01 µM) | IC50 (second compound 0.0316 µM) | IC50 (second compound 0.1 µM)
inactive: viability, T/C [1] 106% | viability, T/C [2] 106% | viability, T/C [3] 121% | viability, T/C [4] 106% | viability, T/C [5] 76.5% | viability, T/C [6] 61% | viability, T/C [7] 86.5% | viability, T/C [8] 119% | viability, T/C [9] 89.2% | viability, T/C [10] 89.3% | viability, T/C [11] 83% | viability, T/C [12] 75.7% | viability, T/C [13] 90% | viability, T/C [14] 95.8% | viability, T/C [15] 94.4% | viability, T/C [16] 86.8% | viability, T/C [17] 86.2% | viability, T/C [18] 86% | viability, T/C [19] 56.3% | viability, T/C [20] 78.8% | viability, T/C [21] 63.7% | viability, T/C [22] 73.2% | viability, T/C [23] 61.6% | viability, T/C [24] 62.4% | viability, T/C [25] 28.7% | viability, T/C [26] 32.3% | viability, T/C [27] 30.3% | viability, T/C [28] 31.8% | viability, T/C [29] 27.5% | viability, T/C [30] 31.2% | viability, T/C [31] 13.7%
active: viability, T/C [32] 4.51% | viability, T/C [33] 5.25% | viability, T/C [34] 12.8% | viability, T/C [35] 10.7% | viability, T/C [36] 10.2%

CC(C)n1nc(-c2ccc3oc(N)nc3c2)c2c(N)ncnc21 + COc1c(OCCCN2CCOCC2)ccc2c3n(c(=NC(=O)c4cnc(N)nc4)nc12)CCN3
54.9 nM: IC50 (second compound 0.0316 µM)
> 100 nM: IC50 (second compound 0.00316 µM) | IC50 (second compound 0.01 µM)
inactive: viability, T/C [1] 98.3% | viability, T/C [2] 90.8% | viability, T/C [3] 74.6% | viability, T/C [4] 80.3% | viability, T/C [5] 83% | viability, T/C [6] 65.1% | viability, T/C [7] 84.1% | viability, T/C [8] 76.4% | viability, T/C [9] 87.8% | viability, T/C [10] 80.5% | viability, T/C [11] 62.3% | viability, T/C [12] 60.2% | viability, T/C [13] 79.9% | viability, T/C [14] 86.5% | viability, T/C [15] 73.7% | viability, T/C [16] 80.6% | viability, T/C [17] 71% | viability, T/C [18] 27% | viability, T/C [19] 77.5% | viability, T/C [20] 51.7% | viability, T/C [21] 56% | viability, T/C [22] 46.8% | viability, T/C [23] 38.7% | viability, T/C [24] 16.9% | viability, T/C [25] 28.4% | viability, T/C [26] 31.3% | viability, T/C [27] 33.6% | viability, T/C [28] 18.6% | viability, T/C [29] 17.2% | viability, T/C [30] 9.14%
5.17 nM: IC50 (second compound 0.1 µM)
< 0.316 nM: IC50 (second compound 0.316 µM) | IC50 (second compound 1 µM)
active: viability, T/C [31] 7.93% | viability, T/C [32] 6.08% | viability, T/C [33] 9.7% | viability, T/C [34] 5.56% | viability, T/C [35] 8.2% | viability, T/C [36] 2.93%
